Assay results as given in PubChem BioAssay (NCI).
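Test compounds were applied to cells in 96-well plates for 48 hours at 5 doses. TGI marks complete inhibition of growth.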

Key:
Assay in all cases: NCI-60 cell line screen, 48 h
[1] = system: KM20L2 colon
[2] = system: EKVX NSCLC
[3] = system: HL-60(TB) leukemia
[4] = system: CAKI-1 renal
[5] = system: M19-MEL melanoma
[6] = system: MOLT-4 leukemia
[7] = system: OVCAR-5 ovarian
[8] = system: DMS 114 small cell lung
[9] = system: ACHN renal
[10] = system: MALME-3M melanoma
[11] = system: 786-0 renal
[12] = system: TK-10 renal
[13] = system: SNB-19 CNS
[14] = system: SF-295 CNS
[15] = system: DLD-1 colon
[16] = system: A498 renal
[17] = system: HCC-2998 colon
[18] = system: SF-539 CNS
[19] = system: CCRF-CEM leukemia
[20] = system: IGROV1 ovarian
[21] = system: UACC-257 melanoma
[22] = system: SW-620 colon
[23] = system: SK-MEL-28 melanoma
[24] = system: SK-OV-3 ovarian
[25] = system: OVCAR-3 ovarian
[26] = system: COLO 205 colon
[27] = system: OVCAR-4 ovarian
[28] = system: HCT-116 colon
[29] = system: RXF 393 renal
[30] = system: A549 NSCLC
[31] = system: UO-31 renal
[32] = system: RPMI-8226 leukemia
[33] = system: SK-MEL-2 melanoma
[34] = system: SK-MEL-5 melanoma
[35] = system: NCI-H23 lung
[36] = system: SF-268 CNS
[37] = system: UACC-62 melanoma
[38] = system: HOP-92 NSCLC
[39] = system: M14 melanoma
[40] = system: NCI-H460 lung
[41] = system: HT29 colon
[42] = system: SN12C renal
[43] = system: SR leukemia
[44] = system: OVCAR-8 ovarian
[45] = system: HOP-62 NSCLC
[46] = system: NCI-H522 lung
[47] = system: KM12 colon
[48] = system: U251 CNS
[49] = system: LOX IMVI melanoma
[50] = system: NCI-H226 lung
[51] = system: DMS 273 small cell lung
[52] = system: SNB-78 CNS
[53] = system: K-562 leukemia
[54] = system: HCT-15 colon
[55] = system: LXFL 529 NSCLC
[56] = system: SNB-75 CNS

COc1nc(C(=O)O)c(Cl)c(OC)c1Cl
TGI [1]: > 100 µM
TGI [2]: > 100 µM
TGI [3]: > 100 µM
TGI [4]: > 100 µM
TGI [5]: > 100 µM
TGI [6]: > 100 µM
TGI [7]: > 100 µM
TGI [8]: > 100 µM
TGI [9]: > 100 µM
TGI [10]: > 100 µM
TGI [11]: > 100 µM
TGI [12]: > 100 µM
TGI [13]: > 100 µM
TGI [14]: > 100 µM
TGI [15]: > 100 µM
TGI [16]: > 100 µM
TGI [17]: > 100 µM
TGI [18]: > 100 µM
TGI [19]: > 100 µM
TGI [20]: > 100 µM
TGI [21]: > 100 µM
TGI [22]: > 100 µM
TGI [23]: > 100 µM
TGI [24]: > 100 µM
TGI [25]: > 100 µM
TGI [26]: > 100 µM
TGI [27]: > 100 µM
TGI [28]: > 100 µM
TGI [29]: > 100 µM
TGI [30]: > 100 µM
TGI [31]: > 100 µM
TGI [32]: > 100 µM
TGI [33]: > 100 µM
TGI [34]: > 100 µM
TGI [35]: > 100 µM
TGI [36]: > 100 µM
TGI [37]: > 100 µM
TGI [38]: > 100 µM
TGI [39]: > 100 µM
TGI [40]: > 100 µM
TGI [41]: > 100 µM
TGI [42]: > 100 µM
TGI [43]: > 100 µM
TGI [44]: > 100 µM
TGI [45]: > 100 µM
TGI [46]: > 100 µM
TGI [47]: > 100 µM

CC1(SCC(N)C(=O)O)CC(=O)NC1=O (stereo not given)
TGI [1]: > 100 µM
TGI [2]: > 100 µM
TGI [48]: > 100 µM
TGI [3]: > 100 µM
TGI [4]: > 100 µM
TGI [5]: > 100 µM
TGI [49]: > 100 µM
TGI [6]: > 100 µM
TGI [8]: > 100 µM
TGI [9]: > 100 µM
TGI [11]: > 100 µM
TGI [50]: > 100 µM
TGI [12]: > 100 µM
TGI [13]: > 100 µM
TGI [14]: > 100 µM
TGI [51]: > 100 µM
TGI [16]: > 100 µM
TGI [52]: > 100 µM
TGI [53]: > 100 µM
TGI [17]: > 100 µM
TGI [18]: > 100 µM
TGI [19]: > 100 µM
TGI [54]: > 100 µM
TGI [20]: > 100 µM
TGI [21]: > 100 µM
TGI [22]: > 100 µM
TGI [23]: > 100 µM
TGI [24]: > 100 µM
TGI [25]: > 100 µM
TGI [26]: > 100 µM
TGI [27]: > 100 µM
TGI [28]: > 100 µM
TGI [29]: > 100 µM
TGI [55]: > 100 µM
TGI [30]: > 100 µM
TGI [31]: > 100 µM
TGI [32]: > 100 µM
TGI [33]: > 100 µM
TGI [34]: > 100 µM
TGI [35]: > 100 µM
TGI [56]: > 100 µM
TGI [36]: > 100 µM
TGI [37]: > 100 µM
TGI [38]: > 100 µM
TGI [40]: > 100 µM
TGI [41]: > 100 µM
TGI [42]: > 100 µM
TGI [43]: > 100 µM
TGI [44]: > 100 µM
TGI [45]: > 100 µM
TGI [46]: > 100 µM
TGI [47]: > 100 µM

CCOC(=O)c1cnc2oc(-c3ccc(OC)cc3)nn2c1=O
TGI [1]: > 100 µM
TGI [2]: > 100 µM
TGI [48]: > 100 µM
TGI [5]: > 100 µM
TGI [6]: > 100 µM
TGI [7]: > 100 µM
TGI [8]: > 100 µM
TGI [10]: > 100 µM
TGI [11]: > 100 µM
TGI [50]: > 100 µM
TGI [12]: > 100 µM
TGI [13]: > 100 µM
TGI [14]: > 100 µM
TGI [51]: > 100 µM
TGI [52]: > 100 µM
TGI [53]: > 100 µM
TGI [17]: > 100 µM
TGI [18]: > 100 µM
TGI [54]: > 100 µM
TGI [20]: > 100 µM
TGI [21]: > 100 µM
TGI [22]: > 100 µM
TGI [23]: > 100 µM
TGI [24]: > 100 µM
TGI [25]: > 100 µM
TGI [26]: > 100 µM
TGI [27]: > 100 µM
TGI [28]: > 100 µM
TGI [29]: > 100 µM
TGI [55]: > 100 µM
TGI [30]: > 100 µM
TGI [31]: > 100 µM
TGI [32]: > 100 µM
TGI [33]: > 100 µM
TGI [34]: > 100 µM
TGI [35]: > 100 µM
TGI [56]: > 100 µM
TGI [36]: > 100 µM
TGI [37]: > 100 µM
TGI [38]: > 100 µM
TGI [41]: > 100 µM
TGI [42]: > 100 µM
TGI [44]: > 100 µM
TGI [46]: > 100 µM
TGI [47]: > 100 µM

COc1ccc2c(c1)CC[C@@H]1C2CC[C@]2(C)C(=O)N(CCN3CCCC3)C(=O)CC12 (stereo not given in full)
TGI [1]: 55 µM
TGI [48]: > 100 µM
TGI [3]: 45.2 µM
TGI [5]: 35.7 µM
TGI [6]: 57.7 µM
TGI [7]: > 100 µM
TGI [8]: 76.4 µM
TGI [9]: > 100 µM
TGI [10]: 31.5 µM
TGI [11]: 35.8 µM
TGI [13]: > 100 µM
TGI [14]: 42.1 µM
TGI [16]: > 100 µM
TGI [52]: > 100 µM
TGI [53]: 70.1 µM
TGI [20]: > 100 µM
TGI [21]: 38.7 µM
TGI [23]: 38.9 µM
TGI [24]: > 100 µM
TGI [25]: > 100 µM
TGI [26]: 37.6 µM
TGI [27]: > 100 µM
TGI [29]: 86.7 µM
TGI [55]: 89.6 µM
TGI [31]: 49.9 µM
TGI [32]: 34.4 µM
TGI [33]: 32.2 µM
TGI [35]: > 100 µM
TGI [56]: 87.1 µM
TGI [36]: > 100 µM
TGI [37]: 35.1 µM
TGI [38]: 81.8 µM
TGI [39]: 31.1 µM
TGI [40]: > 100 µM
TGI [41]: 34.8 µM
TGI [43]: > 100 µM
TGI [45]: 66.6 µM
TGI [46]: 52.7 µM
TGI [47]: > 100 µM

CC1(C)CC2(S(=O)(=O)c3ccccc3)ON1CC2S(=O)(=O)c1ccccc1 (stereo not given)
TGI [1]: > 100 µM
TGI [2]: > 100 µM
TGI [48]: > 100 µM
TGI [3]: 78.5 µM
TGI [4]: > 100 µM
TGI [5]: > 100 µM
TGI [49]: > 100 µM
TGI [6]: > 100 µM
TGI [7]: > 100 µM
TGI [8]: > 100 µM
TGI [9]: > 100 µM
TGI [10]: > 100 µM
TGI [11]: > 100 µM
TGI [50]: > 100 µM
TGI [12]: > 100 µM
TGI [13]: > 100 µM
TGI [14]: > 100 µM
TGI [15]: > 100 µM
TGI [51]: > 100 µM
TGI [53]: > 100 µM
TGI [17]: > 100 µM
TGI [18]: > 100 µM
TGI [19]: 89.9 µM
TGI [54]: > 100 µM
TGI [20]: > 100 µM
TGI [21]: > 100 µM
TGI [22]: > 100 µM
TGI [23]: > 100 µM
TGI [24]: > 100 µM
TGI [25]: > 100 µM
TGI [26]: > 100 µM
TGI [27]: > 100 µM
TGI [28]: > 100 µM
TGI [29]: > 100 µM
TGI [55]: > 100 µM
TGI [30]: > 100 µM
TGI [31]: > 100 µM
TGI [32]: > 100 µM
TGI [33]: > 100 µM
TGI [35]: > 100 µM
TGI [56]: > 100 µM
TGI [36]: > 100 µM
TGI [37]: > 100 µM
TGI [39]: > 100 µM
TGI [40]: > 100 µM
TGI [41]: > 100 µM
TGI [42]: > 100 µM
TGI [43]: > 100 µM
TGI [44]: > 100 µM
TGI [45]: > 100 µM
TGI [46]: > 100 µM
TGI [47]: > 100 µM

c1ccc(C2=NOC3COc4ccccc4OCC23)cc1 (stereo not given)
TGI [1]: > 100 µM
TGI [2]: > 100 µM
TGI [48]: > 100 µM
TGI [3]: > 100 µM
TGI [4]: > 100 µM
TGI [49]: > 100 µM
TGI [6]: > 100 µM
TGI [8]: > 100 µM
TGI [9]: > 100 µM
TGI [10]: > 100 µM
TGI [11]: > 100 µM
TGI [12]: > 100 µM
TGI [13]: > 100 µM
TGI [14]: > 100 µM
TGI [51]: > 100 µM
TGI [16]: > 100 µM
TGI [52]: > 100 µM
TGI [53]: > 100 µM
TGI [17]: > 100 µM
TGI [18]: > 100 µM
TGI [19]: > 100 µM
TGI [54]: > 100 µM
TGI [21]: > 100 µM
TGI [22]: > 100 µM
TGI [23]: > 100 µM
TGI [24]: > 100 µM
TGI [25]: > 100 µM
TGI [26]: > 100 µM
TGI [27]: > 100 µM
TGI [28]: > 100 µM
TGI [29]: > 100 µM
TGI [55]: > 100 µM
TGI [30]: > 100 µM
TGI [31]: > 100 µM
TGI [32]: > 100 µM
TGI [33]: > 100 µM
TGI [34]: > 100 µM
TGI [35]: > 100 µM
TGI [56]: > 100 µM
TGI [36]: > 100 µM
TGI [37]: > 100 µM
TGI [39]: > 100 µM
TGI [40]: > 100 µM
TGI [41]: > 100 µM
TGI [42]: > 100 µM
TGI [43]: > 100 µM
TGI [44]: > 100 µM
TGI [45]: > 100 µM
TGI [46]: > 100 µM
TGI [47]: > 100 µM
